Laboratory results from patent US11279714B2, “Anti-infective compounds” (priority 2014, dated 2022).
≈ marks a conversion by molar mass, not a printed value.

Experiments:
[1] = test system: M. tuberculosis H37Rv expressing the green fluorescent protein (H37Rv-GFP); assay: microbe, parasite or virus in culture; assay type: cell-based; details: for MIC50: Mycobacterium tuberculosis, H37RV, 120 h, read-out: QUM (MIC50)
[2] = test system: Raw 264.7 cells infected with H37Rv-GFP; assay: microbe, parasite or virus in culture; assay type: cell-based, M. tuberculosis; details: for MIC50: Mycobacterium tuberculosis, H37RV, 120 h, read-out: QIM (MIC50)

SMILES | MIC50 [1] | MIC50 [2] | melting point | QUM (MIC50, uM) [1] | QIM (MIC50, uM) [2]
COc1ccc(NC(=O)c2cc3sc(N4CCN(C)CC4)nc3s2)cc1 [Compound 110] | 1 to 20 µM (≈ 0.389 to 7.77 µg/mL) | < 1 µM | 219.8 °C |  | 
N#Cc1ccc(NC(=O)c2cc3nc(N4CCCCC4)sc3s2)cc1 [Compound 32] | 1 to 20 µM (≈ 0.368 to 7.37 µg/mL) | < 1 µM | 163 °C |  | 
Cc1nc2cc(Cl)c(NC(=O)c3cc4sc(N5CCOCC5)nc4s3)cc2o1 [Compound 147] | > 20 µM | > 20 µM | 275.3 °C |  | 
Cc1nnc(-c2ccc(NC(=O)c3cc4sc(N5CCOCC5)nc4s3)cc2)o1 [Compound 103] | < 1 µM | < 1 µM | 319.1 °C |  | 
COc1ccc(NC(=O)c2cc3sc(NCc4ccc(OC)nc4)nc3s2)cc1 [Compound 104] | < 1 µM | < 1 µM | 230.9 °C |  | 
O=C(Nc1ccc(F)c(F)c1)c1cc2nc(N3CCCCC3)sc2s1 [Compound 3] | 1 to 20 µM (≈ 0.379 to 7.59 µg/mL) | < 1 µM | 246.3 °C |  | 
O=C(Nc1ccc(-n2ccnc2)cc1)c1cc2sc(N3CCOCC3)nc2s1 [Compound 182] | > 20 µM | > 20 µM | 266 °C |  | 
COc1ncc(NC(=O)c2cc3nc(N4CCCCC4)sc3s2)cn1 [Compound 6] | 1 to 20 µM (≈ 0.375 to 7.51 µg/mL) | 1 to 20 µM (≈ 0.375 to 7.51 µg/mL) | 274 °C |  | 
COc1ccc(NC(=O)c2cc3sc(NC(=O)C4CCCCC4)nc3s2)cc1 [Compound 65] | > 20 µM | 1 to 20 µM (≈ 0.416 to 8.31 µg/mL) | 271 °C |  | 
Cc1nc2cc(NC(=O)c3cc4sc(N5CCOCC5C(=O)N(C)C)nc4s3)ccc2o1 (stereo not drawn) [Compound 175] | > 20 µM | > 20 µM | 288.6 °C |  | 
Cn1cnc2ccc(NC(=O)c3cc4sc(N5CCOCC5)nc4s3)cc21 [Compound 117] | > 20 µM | > 20 µM | 314 °C |  | 
Cc1nc2cc(NC(=O)c3cc4sc(N5CCOCC5)nc4s3)c(Cl)cc2o1 [Compound 141] | > 20 µM | > 20 µM | 277 °C |  | 
Cc1nc2cc(NC(=O)N3CCc4nc(N5CCOCC5)sc4C3)ccc2o1 [Compound 187] | > 20 µM | > 20 µM | 104 °C |  | 
O=C(Nc1ccc(F)c(F)c1)c1ccc2nc(N3CCCCC3)ccc2c1 [Compound 16] | > 20 µM | > 20 µM | 194 °C |  | 
N#Cc1ccc(NC(=O)c2cc3sc(N4CCCCC4)nc3s2)cc1 [Compound 54] | < 1 µM | < 1 µM | 177 °C |  | 
O=C(Nc1ccc(-c2cc3n(n2)CCO3)cc1)c1cc2sc(N3CCOCC3)nc2s1 [Compound 164] | > 20 µM | > 20 µM | 361.2 °C |  | 
COc1ccc(NC(=O)c2cc3sc(N4CC5CC4CN5)nc3s2)cc1 (stereo not drawn) [Compound 94] | > 20 µM | > 20 µM | 161 °C |  | 
COc1ccc(NC(=O)c2cc3sc(N4CCCCC4)nc3s2)cn1 [Compound 47] | < 1 µM | < 1 µM | 232.4 °C |  | 
CC(C)(C)OC(=O)Nc1cc2sc(N3CCCCC3)nc2s1 [Compound 81] | > 20 µM | > 20 µM | 157 °C |  | 

SMILES | MIC50 [1] | MIC50 [2] | melting point | QUM (MIC50, uM) [1] | QIM (MIC50, uM) [2]
O=C(Nc1ccc(F)cc1)c1cc2sc(N3CCC(O)CC3)nc2s1 [Compound 134] | < 1 µM | < 1 µM | 241.7 °C |  | 
COc1ccc(NC(=O)c2cc3sc(N4CCOCC4)nc3s2)cc1 [Compound 66] | 1 to 20 µM (≈ 0.375 to 7.51 µg/mL) | < 1 µM | 248.8 °C |  | 
O=C(Nc1ccc(O)cc1)c1cc2nc(N3CCCCC3)sc2s1 [Compound 18] | 1 to 20 µM (≈ 0.359 to 7.19 µg/mL) | > 20 µM | 266 °C |  | 
COc1ccc(CCNC(=O)c2cc3nc(N4CCCCC4)sc3s2)cc1 [Compound 22] | 1 to 20 µM (≈ 0.402 to 8.03 µg/mL) | 1 to 20 µM (≈ 0.402 to 8.03 µg/mL) | 188 °C |  | 
COc1ccc(NC(=O)c2cc3sc(NC4CCCC4)nc3s2)cc1 [Compound 90] | < 1 µM | < 1 µM | 239.3 °C |  | 
Cc1nc2cc(NC(=O)c3cc4sc(N5CCC(C(=O)N(C)C)CC5)nc4s3)ccc2o1 [Compound 138] | < 1 µM | < 1 µM | 284.2 °C |  | 
O=C(Nc1ccc(N2CCC(Cc3ccc(F)cc3)CC2)cc1)c1cc2sc(N3CCOCC3)nc2s1 [Compound 183] | > 20 µM | < 1 µM | 246 °C |  | 
CC(C)(C)OC(=O)c1ccc(NC(=O)c2cc3sc(N4CCOCC4)nc3s2)cc1 [Compound 129] | 1 to 20 µM (≈ 0.446 to 8.91 µg/mL) | < 1 µM | 244 °C |  | 
Cc1nc2cc(CCNC(=O)c3cc4sc(N5CCOCC5)nc4s3)ccc2o1 [Compound 177] | 1 to 20 µM (≈ 0.429 to 8.57 µg/mL) | < 1 µM | 219.4 °C |  | 
CN(C)C(=O)C1CCN(c2nc3sc(C(=O)Nc4ccc(F)cc4)cc3s2)CC1 [Compound 136] | < 1 µM | < 1 µM | 296.2 °C |  | 
COc1ccc(NC(=O)c2cc3sc(N4CCC(Oc5ccccc5)CC4)nc3s2)cc1 [Compound 106] | > 20 µM | < 1 µM | 225 °C |  | 
Cc1nnc(-c2ccc(NC(=O)c3cc4sc(N5CCC(O)CC5)nc4s3)cc2)o1 [Compound 123] | > 20 µM | > 20 µM | 334.4 °C |  | 
Cc1nc2cc(NC(=O)c3cc4sc(N5CCOCC5)nc4s3)ccc2o1 [Compound 83] | < 1 µM | < 1 µM | 268.3 °C |  | 
O=C(Nc1ccc(OC(F)(F)F)cc1)c1cc2sc(N3CCCCC3)nc2s1 [Compound 58] | 1 to 20 µM (≈ 0.427 to 8.55 µg/mL) | < 1 µM | 239 °C |  | 
COc1ccc(NC(=O)c2cc3sc(N4CCC(OCc5ccccc5)CC4)nc3s2)cc1 [Compound 77] | 1 to 20 µM (≈ 0.48 to 9.59 µg/mL) | < 1 µM | 190.3 °C |  | 
COc1cc(NC(=O)c2cc3sc(N4CCCCC4)nc3s2)cc(OC)c1 [Compound 37] | > 20 µM | > 20 µM | 148 °C |  | 
CCOC(=O)c1ccc(NC(=O)c2cc3sc(N4CCOCC4)nc3s2)cc1 [Compound 108] | 1 to 20 µM (≈ 0.418 to 8.35 µg/mL) | < 1 µM | 274 °C |  | 
COc1ccc(CNC(=O)c2cc3sc(N4CCCCC4)nc3s2)cc1 [Compound 59] | > 20 µM | > 20 µM | 142 °C |  | 
CCc1cc2oc(C)nc2cc1NC(=O)c1cc2sc(N3CCOCC3)nc2s1 [Compound 150] | > 20 µM | > 20 µM | 244 °C |  | 

SMILES | MIC50 [1] | MIC50 [2] | melting point | QUM (MIC50, uM) [1] | QIM (MIC50, uM) [2]
O=C(Nc1ccc(Cl)cc1)c1cc2nc(N3CCCCC3)sc2s1 [Compound 29] | 1 to 20 µM (≈ 0.378 to 7.56 µg/mL) | 1 to 20 µM (≈ 0.378 to 7.56 µg/mL) | 230 °C |  | 
Cc1ccc(-c2ccc(NC(=O)c3cc4sc(N5CCOCC5)nc4s3)cc2)cn1 [Compound 161] | > 20 µM | < 1 µM | 292 °C |  | 
Cn1ccc(-c2ccc(NC(=O)c3cc4sc(N5CCOCC5)nc4s3)cc2)n1 [Compound 145] | 1 to 20 µM (≈ 0.426 to 8.51 µg/mL) | < 1 µM | 314 °C |  | 
Cc1nc2ccc(NC(=O)c3cc4sc(N5CCOCC5)nc4s3)cc2o1.Cl [Compound 86] |  |  | 272.2 °C | +++ (+++ indicates <1 uM) | +++ (+++ indicates <1 uM)
Cn1ncc2ccc(NC(=O)c3cc4sc(N5CCOCC5)nc4s3)cc21 [Compound 131] | > 20 µM | > 20 µM | 288 °C |  | 
COc1ncc(NC(=O)c2cc3sc(N4CCCCC4)nc3s2)cn1 [Compound 55] | > 20 µM | < 1 µM | 219 °C |  | 
O=C(Nc1ccc(F)cc1)c1cc2sc(N3CCC(CO)CC3)nc2s1 [Compound 142] | < 1 µM | < 1 µM | 246.3 °C |  | 
O=C(Nc1ccc(Oc2ccccc2)cc1)c1cc2nc(N3CCCCC3)sc2s1 [Compound 15] | > 20 µM | > 20 µM | 225.8 °C |  | 
COc1ccc(NC(=O)c2cc3sc(NC4CCCCC4)nc3s2)cc1 [Compound 79] | > 20 µM | < 1 µM | 231 °C |  | 
O=C(Nc1ccc(C(F)(F)F)cc1)c1cc2sc(N3CCOCC3)nc2s1 [Compound 107] | > 20 µM | < 1 µM | 259.3 °C |  | 
COC(=O)C1CCC(NC(=O)c2cc3sc(N4CCCCC4)nc3s2)CC1 (stereo not drawn) [Compound 60] | 1 to 20 µM (≈ 0.408 to 8.15 µg/mL) | 1 to 20 µM (≈ 0.408 to 8.15 µg/mL) | 74 °C |  | 
COc1ccc(C(=O)Nc2cc3sc(N4CCCCC4)nc3s2)cc1 [Compound 98] | > 20 µM | > 20 µM | 92 °C |  | 
COc1ccc(CNc2nc3sc(C(=O)Nc4ccc(OC)cc4)cc3s2)cc1 [Compound 63] | > 20 µM | < 1 µM | 243 °C |  | 
O=C(Nc1ccc(O)cc1)c1cc2sc(N3CCCCC3)nc2s1 [Compound 97] | 1 to 20 µM (≈ 0.359 to 7.19 µg/mL) | 1 to 20 µM (≈ 0.359 to 7.19 µg/mL) | 246 °C |  | 
COc1ccc(NC(=O)c2ccc3nc(N4CCCCC4)ccc3c2)cc1 [Compound 17] | 1 to 20 µM (≈ 0.361 to 7.23 µg/mL) | > 20 µM | 209 °C |  | 
O=C(Nc1ccn(-c2ccccc2)n1)c1cc2sc(N3CCOCC3)nc2s1 [Compound 165] | > 20 µM | 1 to 20 µM (≈ 0.412 to 8.23 µg/mL) | 257.8 °C |  | 
CN(C(=O)c1cc2nc(N3CCCCC3)sc2s1)c1ccc(F)c(F)c1 [Compound 20] | 1 to 20 µM (≈ 0.393 to 7.87 µg/mL) | > 20 µM | 170.1 °C |  | 
COc1ccc(NC(=O)c2cc3nc(N4CCCCC4)sc3s2)cn1 [Compound 10] | > 20 µM | > 20 µM | 270 °C |  | 
CN(C)C(=O)C1CCN(c2nc3sc(C(=O)n4nc(-c5ccc(N)cc5)cc4O)cc3s2)CC1 [Compound 198] | > 20 µM | > 20 µM | 269 °C |  | 
